The target of assay [1] is T1, Signal transducer and activator of transcription 3 (Homo sapiens, UniProt P40763). Nature of the assay: Inhibitory concentration against signal transducer and activator of transcription 3 (stat3) using 5-carboxyfluoresceinyl-Ala-Tyr(PO3H2)-Leu-Pro-Gln-Thr-Val-NH2 by FP assay.
In assay [2] the target is T1, Signal transducer and activator of transcription 3. The assay is described as follows: Inhibitory concentration against signal transducer and activator of transcription 3 (stat3) by (EMSA) electrophoretic mobility shift assay.

Square brackets hold non-standard residues; d marks the D form. Peptide text beside a SMILES is read from it. pY = N[C@@H](Cc1ccc(OP(=O)(O)O)cc1)C(=O)O; Dip = N[C@H](C(=O)O)C(c1ccccc1)c1ccccc1; NMeL = CN[C@@H](CC(C)C)C(=O)O

T1 sequence (P40763 whole entry): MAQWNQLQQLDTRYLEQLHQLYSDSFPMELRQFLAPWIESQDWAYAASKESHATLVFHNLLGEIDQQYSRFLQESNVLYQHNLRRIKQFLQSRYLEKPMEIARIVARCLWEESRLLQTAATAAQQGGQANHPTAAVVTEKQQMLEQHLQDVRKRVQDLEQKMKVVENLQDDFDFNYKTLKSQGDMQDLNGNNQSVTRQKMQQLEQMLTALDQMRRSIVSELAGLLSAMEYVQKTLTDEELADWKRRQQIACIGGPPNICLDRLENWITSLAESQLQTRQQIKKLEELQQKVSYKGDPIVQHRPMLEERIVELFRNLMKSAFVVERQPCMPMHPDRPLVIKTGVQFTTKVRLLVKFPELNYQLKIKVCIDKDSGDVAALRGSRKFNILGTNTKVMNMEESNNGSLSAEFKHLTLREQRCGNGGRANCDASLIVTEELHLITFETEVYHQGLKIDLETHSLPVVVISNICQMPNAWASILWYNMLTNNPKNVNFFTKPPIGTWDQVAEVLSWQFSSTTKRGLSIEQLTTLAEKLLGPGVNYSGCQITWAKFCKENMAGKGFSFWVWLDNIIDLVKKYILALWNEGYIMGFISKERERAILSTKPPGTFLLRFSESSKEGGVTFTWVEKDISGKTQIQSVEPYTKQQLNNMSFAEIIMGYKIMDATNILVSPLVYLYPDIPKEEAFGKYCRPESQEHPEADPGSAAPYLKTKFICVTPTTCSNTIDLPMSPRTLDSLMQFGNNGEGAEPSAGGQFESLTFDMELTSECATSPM

One may read the IC50 as the concentration that gives 50% inhibition. In assay [1], `CC(=O)N[C@@H](Cc1ccc(OP(=O)(O)O)cc1)C(=O)N[C@@H](CC(C)C)C(=O)N1CCC[C@@H]1C(=O)N[C@@H](CCC(N)=O)C(=O)N[C@H](C(N)=O)[C@@H](C)O` yielded a 50% inhibitory concentration (IC50) of over 100000 nM. On to `CC(=O)N[C@@H](Cc1ccc(OP(=O)(O)O)cc1)C(=O)N[C@@H](CC(C)C)C(=O)N1CCC[C@H]1C(=O)N[C@@H](CCC(N)=O)C(=O)N[C@H](C(N)=O)[C@@H](C)O`, for which, in assay [2], the IC50 amounted to 600 nM.

As for `CC(=O)N[C@@H](Cc1ccc(OP(=O)(O)O)cc1)C(=O)N[C@@H](CC(C)C)C(=O)N1CCC[C@H]1C(=O)N[C@@H](CCC(N)=O)C(N)=O` (Ac-[pY]LPQ-NH2), the IC50 in assay [2] was 1000 nM. In assay [1], `CC(=O)N[C@@H](Cc1ccc(OP(=O)(O)O)cc1)C(=O)N[C@H](C(=O)N1CCC[C@H]1C(=O)N[C@@H](CCC(N)=O)C(=O)N[C@H](C(N)=O)[C@@H](C)O)C(c1ccccc1)c1ccccc1` (Ac-[pY][Dip]PQT-NH2) registered a half-inhibitory concentration (IC50) of over 100000 nM. Consider `CC(=O)N[C@@H](Cc1ccc(OP(=O)(O)O)cc1)C(=O)N(C)[C@@H](CC(C)C)C(=O)N1CCC[C@H]1C(=O)N[C@@H](CCC(N)=O)C(=O)N[C@H](C(N)=O)[C@@H](C)O` (Ac-[pY][NMeL]PQT-NH2), for which, in assay [1], the IC50 is over 100000 nM.
